According to US11975005B2, “Treatment of respiratory diseases” (TIANLI BIOTECH PTY LTD, priority 2015, dated 2024):

How the values were obtained:
[1] = tested on: human parenchymal fibroblasts; test: TGFβ-induced fibrogenic gene expression in human parenchymal lung fibroblasts; format: cell-based
Description: Experiments described in the current Example and Example 14 involved culture of human parenchymal fibroblasts, measurement of their proliferation and gene expression response, the methods for which are detailed in Schuliga et al 2009 (Am J Respir Cell Mol Biol. 2009; 41(6):731-41).
The investigation of fibrogenesis may be undertaken in in vivo models typically using rodents. However, differences in behavior of cell types and species differences in protein structures and signaling systems create some limitations in the predictive value of such models. Additional valuable evidence of impacts on fibrogenesis can be obtained from the use of human fibroblasts isolated from the parenchyma and maintained in cell culture (Schuliga et al. (2009) Am J Respir Cell Mol Biol 41(6):731-741; Westergren-Thorsson et al. (2004) Int J Biochem Cell Biol 36(8): 1573-1584).
The data shown is for parenchymal lung fibroblasts from both patients with the pulmonary fibrotic disease, idiopathic pulmonary fibrosis (IPF) and those derived samples of non-IPF donors. […] Colla is a subunit of the fibrillar type collagen that is deposited in excess in the extracellular matrix in fibrotic lesions.
FIG. 15B was performed in the same manner as for FIG. 15A except that in this experiment the fibroblasts are cultured as a suspended spheroid, rather than in 2D monolayer culture.

[2] = tested on: HDM allergen; test: House dust mite (HDM) allergen challenge in mice; format: in vivo
Experimental: The conduct of the house dust mite allergy model with RSV complication was conducted as described herein and using the approaches described in Fuchs and Braun 2008 (Curr Drug Targets. 2008 June; 9(6):495-502).

Nc1nccc(-c2c(-c3ccc(F)cc3)ncn2C2CCCCC2)n1 [PF670462]
TGFβ induction of Col1a (collagen 1A) expression ([1]; 2D monolayer fibroblasts from IPF and non-IPF donors, TGFβ 24 hour, 3 μM): significantly suppressed
TGFβ-induced collagen 1A expression in IPF fibroblasts cultured as suspended spheroid ([1]; FIG. 15B, 3 μM): inhibits
TGFβ-induced collagen 1A increase in non-IPF derived cultures as suspended spheroid ([1]; FIG. 15B, 3 μM): not signficantly affected
fibrogenic actions of TGFβ (FIGS. 15A-C, collagen 1A and CTGF) ([1]; IPF or non-IPF donors, 2D or 3D): inhibited
increase in the BAL protein level ([2]; HDM allergen 25 μg/35 μL daily intranasal, aerosol PF670462 3 mg/ml, Budesonide 0.5 mg/ml): regulated
Lymphocyte numbers in BAL ([2]; HDM allergen challenged mice, aerosol treatments): reduced
